Assay results as given in doi:10.1101/2024.12.02.625520, “Identification of Inhibitors of Chikungunya virus nsP2 ATPase” (bioRxiv, 2025).
In brackets after ≈: the same amount, converted by molar mass. Where two headings read alike, the source gives them in different places.

Key:
CHIKV nsP2 ATPase [1] = molecular target: T1, CHIKV nsP2 ATPase (Chikungunya virus, UniProt Q8JUX6); test: High throughput nsP2 ATPase activity assay (Malachite Green)
CHIKV nsP2 ATPase [2] = molecular target: T1, CHIKV nsP2 ATPase; test: Secondary CHIKV nsP2 ATPase assay (ADP-Glo); settings: for Hill slope: ADP-Glo dose response
Kinetic solubility = settings: kinetic from dmso stock
[3] = read-out: Malachite Green % INHIBITION (ORIGINAL)
[4] = read-out: Malachite Green % INHIBITION (RESCREEN)
[5] = read-out: ADP-Glo IC50, Avge n=2, 1 nM CHIKV nsP2fl, 30 μM ATP, 30 min pre-incubation

T1 sequence (Q8JUX6 536-1333): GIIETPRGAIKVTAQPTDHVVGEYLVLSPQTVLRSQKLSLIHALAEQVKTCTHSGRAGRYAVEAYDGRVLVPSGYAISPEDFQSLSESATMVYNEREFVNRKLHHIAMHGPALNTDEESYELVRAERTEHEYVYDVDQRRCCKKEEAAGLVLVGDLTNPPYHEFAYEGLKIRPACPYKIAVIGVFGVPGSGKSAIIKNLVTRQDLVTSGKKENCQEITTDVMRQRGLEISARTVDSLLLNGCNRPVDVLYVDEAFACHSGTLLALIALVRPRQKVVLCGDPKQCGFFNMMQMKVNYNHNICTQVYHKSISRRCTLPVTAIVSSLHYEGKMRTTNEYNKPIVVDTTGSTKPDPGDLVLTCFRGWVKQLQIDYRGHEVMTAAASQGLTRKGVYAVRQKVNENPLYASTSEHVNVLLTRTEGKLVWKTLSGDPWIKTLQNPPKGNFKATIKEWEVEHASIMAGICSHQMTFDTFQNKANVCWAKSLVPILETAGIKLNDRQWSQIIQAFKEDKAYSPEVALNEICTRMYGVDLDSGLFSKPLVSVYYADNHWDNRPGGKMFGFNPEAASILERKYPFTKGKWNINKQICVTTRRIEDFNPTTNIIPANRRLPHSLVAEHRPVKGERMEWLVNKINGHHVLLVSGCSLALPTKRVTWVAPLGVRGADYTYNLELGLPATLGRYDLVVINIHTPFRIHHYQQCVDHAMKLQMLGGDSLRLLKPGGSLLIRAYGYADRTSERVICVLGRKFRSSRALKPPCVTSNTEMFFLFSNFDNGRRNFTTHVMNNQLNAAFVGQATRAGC

SMILES: Fc1cccc(CSC2=NC3(CCCCC3)Nc3ccccc32)c1 [RA-0001815]
- inhibition at 25 µM (CHIKV nsP2 ATPase [1]; [3]): 81%
- inhibition at 25 µM (CHIKV nsP2 ATPase [1]; [4]): 77%

SMILES: O=C(C1CCCN(c2ccc(Sc3ccc(Br)cc3)nn2)C1)N1CCSCC1 (stereo not shown) [RA-0001816]
- Hill slope (CHIKV nsP2 ATPase [2]; Avge n=2): 1.2
- IC50 (CHIKV nsP2 ATPase [2]; [5]): 7.2 µM
- inhibition at 25 µM (CHIKV nsP2 ATPase [1]; [3]): 67%
- inhibition at 25 µM (CHIKV nsP2 ATPase [1]; [4]): 71%

SMILES: O=C(CSc1nnc2c(=O)n(-c3cccc(F)c3)ccn12)c1c[nH]c2ccccc12 [RA-0001818]
- inhibition at 25 µM (CHIKV nsP2 ATPase [1]; [3]): 50%
- inhibition at 25 µM (CHIKV nsP2 ATPase [1]; [4]): 145%

SMILES: O=c1cc(-c2ccc(O)c(O)c2)oc2cc(O)cc(O)c12 [RA-0001820]
- inhibition at 25 µM (CHIKV nsP2 ATPase [1]; [3]): 60%
- inhibition at 25 µM (CHIKV nsP2 ATPase [1]; [4]): 62%

SMILES: N#Cc1c(SCc2ccccc2Cl)nsc1SCc1ccccc1Cl [RA-0001804]
- Hill slope (CHIKV nsP2 ATPase [2]; Avge n=2): 2.35
- inhibition at 25 µM (CHIKV nsP2 ATPase [1]; [3]): 53%
- inhibition at 25 µM (CHIKV nsP2 ATPase [1]; [4]): 64%

SMILES: Cc1c(Cl)ccc2c1NC(C(=O)O)C1CC=CC21 (stereo not shown) [RA-0001808]
- inhibition at 25 µM (CHIKV nsP2 ATPase [1]; [3]): 63%
- inhibition at 25 µM (CHIKV nsP2 ATPase [1]; [4]): 69%

SMILES: COc1ccc(OC)c(N2C(=O)/C(=C/c3ccco3)C(=O)NC2=S)c1 [RA-0001798]
- Hill slope (CHIKV nsP2 ATPase [2]; Avge n=2): 1.4
- IC50 (CHIKV nsP2 ATPase [2]; [5]): 3.8 µM
- IC50 (CHIKV nsP2 ATPase [2]; read-out: ADP-Glo IC50, Avge n=2, 1 nM CHIKV nsP2fl, 30 μM ATP, 30 min pre-incubation, listed as 1798): < 10 µM
- inhibition at 25 µM (CHIKV nsP2 ATPase [1]; [3]): 79%
- inhibition at 25 µM (CHIKV nsP2 ATPase [1]; [4]): 74%

SMILES: O=C1c2oc3ccccc3c(=O)c2C(c2ccc(O)cc2)N1Cc1ccccc1Cl (stereo not shown) [RA-0001802]
- IC50 (CHIKV nsP2 ATPase [2]): 14.8 µM
- Hill slope (CHIKV nsP2 ATPase [2]; Avge n=2): 1
- inhibition at 25 µM (CHIKV nsP2 ATPase [1]; [3]): 37%
- inhibition at 25 µM (CHIKV nsP2 ATPase [1]; [4]): 51%

SMILES: Cc1cccc(CSc2nsc(SCc3cccc(C)c3)c2C#N)c1 [RA-0001803]
- inhibition at 25 µM (CHIKV nsP2 ATPase [1]; [3]): 57%
- inhibition at 25 µM (CHIKV nsP2 ATPase [1]; [4]): 61%

SMILES: Cc1ccnc(OC2CCOC3(CCN(C(=O)C4(c5ccccc5)CCCC4)CC3)C2)c1 (stereo not shown) [RA-0001821]
- solubility kinetic (Kinetic solubility): 14.2 µM (≈ 6.17 µg/mL)
- Hill slope (CHIKV nsP2 ATPase [2]; Avge n=2): 1.25
- IC50 (CHIKV nsP2 ATPase [2]; [5]): 4 µM
- inhibition at 25 µM (CHIKV nsP2 ATPase [1]; [3]): 70%
- inhibition at 25 µM (CHIKV nsP2 ATPase [1]; [4]): 65%

SMILES: Cc1ncc2c(n1)COC21CN(C(=O)C2(c3ccccc3)CCCC2)C1 [RA-0001824]
- IC50 (CHIKV nsP2 ATPase [2]): 5.6 µM
- Hill slope (CHIKV nsP2 ATPase [2]; Avge n=2): 0.43
- inhibition at 25 µM (CHIKV nsP2 ATPase [1]; [3]): 79%
- inhibition at 25 µM (CHIKV nsP2 ATPase [1]; [4]): 69%

SMILES: O=c1c(O)c(-c2ccc(O)c(O)c2)oc2cc(O)cc(O)c12 [RA-0001795]
- IC50 (CHIKV nsP2 ATPase [2]): 26.7 µM
- Hill slope (CHIKV nsP2 ATPase [2]; Avge n=2): 0.7
- inhibition at 25 µM (CHIKV nsP2 ATPase [1]; [3]): 62%
- inhibition at 25 µM (CHIKV nsP2 ATPase [1]; [4]): 55%

SMILES: Clc1ccccc1CSC1=NC2(CCCCC2)Nc2ccccc21 [RA-0001813]
- inhibition at 25 µM (CHIKV nsP2 ATPase [1]; [3]): 66%
- inhibition at 25 µM (CHIKV nsP2 ATPase [1]; [4]): 81%

SMILES: Cc1ccc(CSc2nsc(SCc3ccc(C)cc3)c2C#N)cc1 [RA-0001806]
- inhibition at 25 µM (CHIKV nsP2 ATPase [1]; [3]): 45%
- inhibition at 25 µM (CHIKV nsP2 ATPase [1]; [4]): 53%

SMILES: COc1cc(Cl)c(NS(=O)(=O)c2c(C)sc(C)c2-c2[nH]nc(C)c2C)c(OC)c1 [RA-0001819]
- solubility kinetic (Kinetic solubility): 12.5 µM (≈ 5.7 µg/mL)
- IC50 (CHIKV nsP2 ATPase [2]): 0.6 µM
- Hill slope (CHIKV nsP2 ATPase [2]; Avge n=2): 0.7
- inhibition at 25 µM (CHIKV nsP2 ATPase [1]; [3]): 66%
- inhibition at 25 µM (CHIKV nsP2 ATPase [1]; [4]): 72%

SMILES: O=C(CN1C(=O)C2C3CCC(C3)C2C1=O)OCC(=O)c1ccc(Cl)cc1 (stereo not shown) [RA-0001796]
- IC50 (CHIKV nsP2 ATPase [2]): 19.9 µM
- Hill slope (CHIKV nsP2 ATPase [2]; Avge n=2): 0.6
- inhibition at 25 µM (CHIKV nsP2 ATPase [1]; [3]): 60%
- inhibition at 25 µM (CHIKV nsP2 ATPase [1]; [4]): 55%

SMILES: Fc1cccc(Cl)c1Cn1cccc1C1=NC(CSCc2ccccc2)CO1 (stereo not shown) [RA-0001811]
- inhibition at 25 µM (CHIKV nsP2 ATPase [1]; [3]): 46%
- inhibition at 25 µM (CHIKV nsP2 ATPase [1]; [4]): 56%

SMILES: CCCC(C(=O)O)N1C(=O)/C(=C/c2ccc(-c3ccc(Br)cc3)o2)SC1=S (stereo not shown) [RA-0001801]
- Hill slope (CHIKV nsP2 ATPase [2]; Avge n=2): 1.4
- IC50 (CHIKV nsP2 ATPase [2]; [5]): 12.8 µM
- inhibition at 25 µM (CHIKV nsP2 ATPase [1]; [3]): 62%
- inhibition at 25 µM (CHIKV nsP2 ATPase [1]; [4]): 55%

SMILES: Cc1nc(CC2CCOC3(CCN(C(=O)C4(c5ccccc5)CCCC4)CC3)C2)no1 (stereo not shown) [RA-0001823]
- solubility kinetic (Kinetic solubility): 202 µM (≈ 85.6 µg/mL)
- IC50 (CHIKV nsP2 ATPase [2]): 1.5 µM
- Hill slope (CHIKV nsP2 ATPase [2]; Avge n=2): 0.87
- inhibition at 25 µM (CHIKV nsP2 ATPase [1]; [3]): 78%
- inhibition at 25 µM (CHIKV nsP2 ATPase [1]; [4]): 82%

SMILES: Brc1ccc(-c2csc(N3CCc4ccccc4C3)n2)cc1 [RA-0001809]
- inhibition at 25 µM (CHIKV nsP2 ATPase [1]; [3]): 58%
- inhibition at 25 µM (CHIKV nsP2 ATPase [1]; [4]): 60%

SMILES: N#Cc1c(SCc2ccccc2)cc(SCc2ccccc2)cc1SCc1ccccc1 [RA-0001807]
- Hill slope (CHIKV nsP2 ATPase [2]; Avge n=2): 2
- inhibition at 25 µM (CHIKV nsP2 ATPase [1]; [3]): 45%
- inhibition at 25 µM (CHIKV nsP2 ATPase [1]; [4]): 60%

SMILES: CS(=O)(=O)NCC1CCOC2(CCN(C(=O)C3(c4ccccc4)CCCC3)CC2)C1 (stereo not shown) [RA-0001822]
- solubility kinetic (Kinetic solubility): 236 µM (≈ 103 µg/mL)
- IC50 (CHIKV nsP2 ATPase [2]): 2.3 µM
- Hill slope (CHIKV nsP2 ATPase [2]; Avge n=2): 0.85
- inhibition at 25 µM (CHIKV nsP2 ATPase [1]; [3]): 84%
- inhibition at 25 µM (CHIKV nsP2 ATPase [1]; [4]): 81%

SMILES: Cc1ccc(N2C(=O)/C(=C/C=C/c3ccco3)C(=O)NC2=S)cc1 [RA-0001799]
- Hill slope (CHIKV nsP2 ATPase [2]; Avge n=2): 2.8
- inhibition at 25 µM (CHIKV nsP2 ATPase [1]; [3]): 85%
- inhibition at 25 µM (CHIKV nsP2 ATPase [1]; [4]): 64%

SMILES: N#Cc1c(SCc2cccc(F)c2)nsc1SCc1cccc(F)c1 [RA-0001805]
- inhibition at 25 µM (CHIKV nsP2 ATPase [1]; [3]): 33%
- inhibition at 25 µM (CHIKV nsP2 ATPase [1]; [4]): 51%

SMILES: CSc1ccc(Cn2cccc2C2=NC(CSCc3ccc(F)cc3)CO2)cc1 (stereo not shown) [RA-0001812]
- inhibition at 25 µM (CHIKV nsP2 ATPase [1]; [3]): 48%
- inhibition at 25 µM (CHIKV nsP2 ATPase [1]; [4]): 53%

SMILES: CN(Cc1ccco1)c1nc(-c2ccc(Cl)cc2)nc2ccccc12 [RA-0001817]
- inhibition at 25 µM (CHIKV nsP2 ATPase [1]; [3]): 49%
- inhibition at 25 µM (CHIKV nsP2 ATPase [1]; [4]): 56%

SMILES: Clc1cccc(CSC2=NC3(CCCCC3)Nc3ccccc32)c1 [RA-0001814]
- inhibition at 25 µM (CHIKV nsP2 ATPase [1]; [3]): 73%
- inhibition at 25 µM (CHIKV nsP2 ATPase [1]; [4]): 54%

SMILES: CC1SC2(C(=O)Nc3ccccc32)N(CCc2c[nH]c3ccccc23)C1=O (stereo not shown) [RA-0001810]
- IC50 (CHIKV nsP2 ATPase [2]): 27.5 µM
- Hill slope (CHIKV nsP2 ATPase [2]; Avge n=2): 2.65
- inhibition at 25 µM (CHIKV nsP2 ATPase [1]; [3]): 58%
- inhibition at 25 µM (CHIKV nsP2 ATPase [1]; [4]): 76%
